The record followed here is patent publication US9718785B2, “1,3-Disubstituted cyclopentane derivatives” (MERCK PATENT GMBH, priority 2013, dated 2017).

The term IC50 denotes the midpoint of a concentration-inhibition curve.

Structures are written as SMILES.

The experiment has as its target T1, human recombinant full-length fatty acid synthase (FASN) (Homo sapiens, UniProt P49327).
T1 construct: 40 nM human recombinant full-length fatty acid synthase (produced in-house in SF9 cells); made in house; host or cells: SF9 insect cells
The experiment is described as follows: Biochemical activity testing of human fatty acid synthase FASN (NADPH fluorescence intensity enzyme assay). To be noted: human recombinant FASN, enzyme assay. The text has this: Biochemical Activity Testing of Human Fatty Acid Synthase FASN
Fatty acid synthase FASN is a multifunctional enzyme with seven catalytic activities thereby synthesising long chain fatty acids especially palmitoyl-CoA in the presence of co-factor NADPH starting from the substrates acetyl-CoA and malonyl-CoA. The reductive synthesis is realized by the oxidation of NADPH to NADP. Since NADPH has a high fluorescence intensity quantum yield compared to NADP with excitation at 340 nm and emission at 460 nm, the reaction can be monitored via the decrease in fluorescence intensity. The biochemical FASN activity testing was performed as 384 well two-time-point kinetic fluorescence intensity assay format in Greiner low volume medium binding 384-well black microtiter plates in a total assay volume of 8 μl and was used for high throughput screen. In each well 3 μl 40 nM human recombinant full-length fatty acid synthase (produced in-house in SF9 cells) were dispensed in the following assay buffer: 50 mM potassium phosphate buffer pH 7.0, 0.005% (w/v) BSA, 2 mM Glutathione, 0.02% Tween-20. Then 2 μl of 200 μM NADPH in assay buffer were added, followed by the addition of the test compounds in 10 dilution concentrations starting with 30 μM (final concentration) to get a final DMSO content of 1% (v/v). The mixture was incubated for at least 15 min at room temperature. After the pre-incubation the enzymatic reaction was started by the addition of 2 μl substrate solution (80 μM acetyl-CoA, 240 μM malonyl-CoA). A first fluorescence intensity measurement (time point one) was performed with an Envision multimode reader (Perkin Elmer LAS Germany GmbH) at excitation wavelength 340 nm (lamp mode) and emission wavelength 460 nm. The reaction was incubated for 30 minutes at room temperature. After this the fluorescence intensity was measured again in the Envision using the same parameters as described above (second time point measurement). The data were analysed by subtracting the first time point measurement value from the second time point measurement value (after the enzymatic reaction). The differences of the emission signals were determined. These reflect directly the conversion rate of NADPH. The full value used was the inhibitor-free reaction. A pharmacological zero value was used like GSK837149A (Sigma-Aldrich) in a final concentration of 5-10 μM. The inhibitory values (IC50) were determined using either the program Symyx Assay Explorer® or Condosseo® from GeneData.

T1 sequence (P49327 whole entry): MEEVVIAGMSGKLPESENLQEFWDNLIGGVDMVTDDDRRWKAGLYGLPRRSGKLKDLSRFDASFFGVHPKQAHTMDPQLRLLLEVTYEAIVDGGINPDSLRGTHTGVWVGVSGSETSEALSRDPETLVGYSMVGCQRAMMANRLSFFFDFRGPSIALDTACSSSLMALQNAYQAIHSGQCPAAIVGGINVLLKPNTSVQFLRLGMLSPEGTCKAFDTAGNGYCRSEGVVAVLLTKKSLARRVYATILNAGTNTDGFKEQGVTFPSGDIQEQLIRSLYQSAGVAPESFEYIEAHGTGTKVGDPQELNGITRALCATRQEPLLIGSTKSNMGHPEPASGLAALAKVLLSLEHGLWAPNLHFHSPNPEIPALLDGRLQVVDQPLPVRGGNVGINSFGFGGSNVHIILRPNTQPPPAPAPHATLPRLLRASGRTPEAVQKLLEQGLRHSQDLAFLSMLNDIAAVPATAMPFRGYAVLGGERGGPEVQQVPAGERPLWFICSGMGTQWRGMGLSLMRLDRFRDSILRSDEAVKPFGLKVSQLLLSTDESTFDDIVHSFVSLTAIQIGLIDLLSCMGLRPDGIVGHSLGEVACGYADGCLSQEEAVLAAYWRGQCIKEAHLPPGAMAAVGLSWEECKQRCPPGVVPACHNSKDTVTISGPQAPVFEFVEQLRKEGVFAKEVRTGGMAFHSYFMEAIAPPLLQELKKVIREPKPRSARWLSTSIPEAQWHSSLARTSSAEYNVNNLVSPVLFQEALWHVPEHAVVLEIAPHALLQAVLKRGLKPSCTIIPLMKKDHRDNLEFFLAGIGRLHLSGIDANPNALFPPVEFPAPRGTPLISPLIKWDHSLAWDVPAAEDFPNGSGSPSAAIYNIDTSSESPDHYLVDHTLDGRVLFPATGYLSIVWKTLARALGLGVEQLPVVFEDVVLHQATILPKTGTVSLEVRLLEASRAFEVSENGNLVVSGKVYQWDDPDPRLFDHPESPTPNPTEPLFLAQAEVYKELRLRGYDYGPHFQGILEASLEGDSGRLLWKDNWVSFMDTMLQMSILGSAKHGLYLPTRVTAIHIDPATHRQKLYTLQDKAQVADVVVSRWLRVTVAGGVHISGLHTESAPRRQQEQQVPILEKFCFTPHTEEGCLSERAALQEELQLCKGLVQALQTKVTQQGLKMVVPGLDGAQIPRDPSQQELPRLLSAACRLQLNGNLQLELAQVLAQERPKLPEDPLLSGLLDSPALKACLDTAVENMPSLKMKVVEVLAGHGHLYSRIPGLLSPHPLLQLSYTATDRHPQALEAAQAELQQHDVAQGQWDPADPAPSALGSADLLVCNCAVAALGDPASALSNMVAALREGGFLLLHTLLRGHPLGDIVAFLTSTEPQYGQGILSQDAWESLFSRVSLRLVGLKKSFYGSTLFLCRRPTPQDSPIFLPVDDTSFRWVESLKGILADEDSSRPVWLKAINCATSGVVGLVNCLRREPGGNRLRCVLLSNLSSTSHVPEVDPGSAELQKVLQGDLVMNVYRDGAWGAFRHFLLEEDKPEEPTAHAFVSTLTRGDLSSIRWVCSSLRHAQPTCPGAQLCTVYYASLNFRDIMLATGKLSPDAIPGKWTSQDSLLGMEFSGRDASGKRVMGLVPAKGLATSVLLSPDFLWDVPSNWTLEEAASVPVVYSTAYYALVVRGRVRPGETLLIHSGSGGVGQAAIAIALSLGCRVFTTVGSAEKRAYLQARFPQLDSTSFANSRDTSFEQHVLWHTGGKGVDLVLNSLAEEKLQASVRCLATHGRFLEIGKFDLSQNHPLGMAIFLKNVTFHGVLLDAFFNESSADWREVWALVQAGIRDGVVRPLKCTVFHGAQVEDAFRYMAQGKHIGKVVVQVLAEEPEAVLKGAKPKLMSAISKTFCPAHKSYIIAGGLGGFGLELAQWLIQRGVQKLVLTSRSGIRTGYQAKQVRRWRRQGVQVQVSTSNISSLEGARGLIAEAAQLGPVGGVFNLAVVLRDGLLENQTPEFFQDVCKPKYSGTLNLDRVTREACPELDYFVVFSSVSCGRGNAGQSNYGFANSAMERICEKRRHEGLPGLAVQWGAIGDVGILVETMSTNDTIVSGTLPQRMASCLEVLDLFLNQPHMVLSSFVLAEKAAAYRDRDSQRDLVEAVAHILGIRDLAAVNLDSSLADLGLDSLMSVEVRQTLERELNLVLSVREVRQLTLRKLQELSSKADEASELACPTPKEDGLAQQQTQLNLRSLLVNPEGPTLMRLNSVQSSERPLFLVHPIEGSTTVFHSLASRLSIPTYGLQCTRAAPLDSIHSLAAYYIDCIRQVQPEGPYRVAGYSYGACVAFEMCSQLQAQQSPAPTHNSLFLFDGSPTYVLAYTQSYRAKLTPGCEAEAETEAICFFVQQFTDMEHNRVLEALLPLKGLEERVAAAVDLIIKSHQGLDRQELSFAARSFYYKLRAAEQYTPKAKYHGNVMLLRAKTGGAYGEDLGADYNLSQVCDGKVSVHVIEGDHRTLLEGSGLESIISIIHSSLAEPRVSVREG

As to `CCC(=O)N[C@H]1CC[C@@H](n2nncc2-c2ccc(-c3ccc4cnn(C)c4c3)cc2)C1` [Compound A63, N-((1S,3R)-3-{5-[4-(1-Methyl-1H-indazol-6-yl)-phenyl]-[1,2,3]triazol-1-yl}-cyclopentyl)-propionamide], the IC50 was < 0.3 µM.
To `CCC(=O)N[C@H]1CC[C@@H](n2nncc2-c2ccc(-c3ccc(-c4cnn(C)c4)cc3)cc2)C1` [Compound A64, N-((1S,3R)-3-{5-[4′-(1-Methyl-1H-pyrazol-4-yl)-biphenyl-4-yl]-[1,2,3]triazol-1-yl}-cyclopentyl)-propionamide] belongs < 0.3 µM.
To `CCNC(=O)[C@H]1CC[C@@H](n2cnnc2-c2ccc(-c3ccc4ncsc4c3)cc2)C1` [Compound A65, (1S,3R)-3-[3-(4-Benzothiazol-6-yl-phenyl)-[1,2,4]triazol-4-yl]-cyclopentanecarboxylic acid ethylamide] belongs < 0.3 µM; to `O=C(N[C@H]1CC[C@@H](n2nncc2-c2ccc(-c3nc4ccccc4o3)cc2)C1)C1CC1` [Compound A66, Cyclopropanecarboxylic acid {(1S,3R)-3-[5-(4-benzooxazol-2-yl-phenyl)-[1,2,3]triazol-1-yl]-cyclopentyl}-amide], < 0.3 µM; to `O=C(CC1CCCC1)N[C@H]1CC[C@@H](n2nncc2-c2ccc(-c3nc4ccccc4o3)cc2)C1` [Compound A67, N-{(1S,3R)-3-[5-(4-Benzoxazol-2-yl-phenyl)-[1,2,3]triazol-1-yl]-cyclopentyl}-2-cyclopentyl-acetamide], 0.3 to 3 µM.
On to `O=C(N[C@H]1CC[C@@H](n2nncc2-c2ccc(-c3nc4ccccc4o3)cc2)C1)[C@H]1CCCO1` [Compound A68, (R)-Tetrahydro-furan-2-carboxylic acid {(1S,3R)-3-[5-(4-benzooxazol-2-yl-phenyl)-[1,2,3]triazol-1-yl]-cyclopentyl}-amide], for which the IC50 lay in the range of 0.3 to 3 µM.
With `O=C(N[C@H]1CC[C@@H](n2nncc2-c2ccc(-c3nc4ccccc4o3)cc2)C1)[C@@H]1CCCO1` [Compound A69, (S)-Tetrahydro-furan-2-carboxylic acid {(1S,3R)-3-[5-(4-benzooxazol-2-yl-phenyl)-[1,2,3]triazol-1-yl]-cyclopentyl}-amide] the figure was < 0.3 µM; with `CCC(=O)N[C@H]1CC[C@@H](n2nncc2-c2ccc(-c3cnc4ccccc4c3)cc2)C1` [Compound A70, N-{(1S,3R)-3-[5-(4-Quinolin-3-yl-phenyl)-[1,2,3]triazol-1-yl]-cyclopentyl}-propionamide], < 0.3 µM; with `CCC(=O)N[C@H]1CC[C@@H](n2nncc2-c2ccc(-c3ccc4c(ccn4C)c3)cc2)C1` [Compound A71, N-((1S,3R)-3-{5-[4-(1-Methyl-1H-indol-5-yl)-phenyl]-[1,2,3]triazol-1-yl}-cyclopentyl)-propionamide], < 0.3 µM.
With `CCC(=O)N[C@H]1CC[C@@H](n2nncc2-c2ccc(-c3ccc4cn[nH]c4c3)cc2)C1` [Compound A72, N-((1S,3R)-3-{5-[4-(1H-Indazol-6-yl)-phenyl]-[1,2,3]triazol-1-yl}-cyclopentyl)-propionamide] the figure was < 0.3 µM; with `CCC(=O)N[C@H]1CC[C@@H](n2nncc2-c2ccc(-c3ccc4[nH]cnc4c3)cc2)C1` [Compound A73, N-((1S,3R)-3-{5-[4-(1H-Benzimidazol-5-yl)-phenyl]-[1,2,3]triazol-1-yl}-cyclopentyl)-propionamide], < 0.3 µM.
With `CCC(=O)N[C@H]1CC[C@@H](n2nncc2-c2ccc(-c3ccc4[nH]ncc4c3)cc2)C1` [Compound A74, N-((1S,3R)-3-{5-[4-(1H-Indazol-5-yl)-phenyl]-[1,2,3]triazol-1-yl}-cyclopentyl)-propionamide] the figure was < 0.3 µM.
`CCC(=O)N[C@H]1CC[C@@H](n2nncc2-c2ccc(-c3ccc(Cl)c(F)c3)cc2)C1` [Compound A75, N-{(1S,3R)-3-[5-(4′-Chloro-3′-fluoro-biphenyl-4-yl)-[1,2,3]triazol-1-yl]-cyclopentyl}-propionamide]: the IC50 is < 0.3 µM.
With `CCC(=O)N[C@H]1CC[C@@H](n2nncc2-c2ccc(-c3ccc(-n4cccn4)cc3)cc2)C1` [Compound A76, N-{(1S,3R)-3-[5-(4′-Pyrazol-1-yl-biphenyl-4-yl)-[1,2,3]triazol-1-yl]-cyclopentyl}-propionamide] the figure was < 0.3 µM; with `CCC(=O)N[C@H]1CC[C@@H](n2nncc2-c2ccc(-c3ccc4c(c3)N(C)C(=O)C4)cc2)C1` [Compound A77, N-((1S,3R)-3-{5-[4-(1-Methyl-2-oxo-2,3-dihydro-1H-indol-6-yl)-phenyl]-[1,2,3]triazol-1-yl}-cyclopentyl)-propionamide], < 0.3 µM.
With `CCC(=O)N[C@H]1CC[C@@H](n2nncc2-c2ccc(-c3cc4cn[nH]c4cc3C)cc2)C1` [Compound A78, N-((1S,3R)-3-{5-[4-(6-Methyl-1H-indazol-5-yl)-phenyl]-[1,2,3]triazol-1-yl}-cyclopentyl)-propionamide] the figure was < 0.3 µM.
With `CCC(=O)N[C@H]1CC[C@@H](n2nncc2-c2ccc(-c3ccc4c(c3)CC(=O)N4)cc2)C1` [Compound A79, N-((1S,3R)-3-{5-[4-(2-Oxo-2,3-dihydro-1H-indol-5-yl)-phenyl]-[1,2,3]triazol-1-yl}-cyclopentyl)-propionamide] the figure was < 0.3 µM.
Consider `CCC(=O)N[C@H]1CC[C@@H](n2nncc2-c2ccc(-c3ccc(C#N)c(F)c3)cc2)C1` [Compound A80, N-{(1S,3R)-3-[5-(4′-Cyano-3′-fluoro-biphenyl-4-yl)-[1,2,3]triazol-1-yl]-cyclopentyl}-propionamide], for which the IC50 is < 0.3 µM.
To `CCC(=O)N[C@H]1CC[C@@H](n2nncc2-c2ccc(-c3ccc(Cl)cc3F)cc2)C1` [Compound A81, N-{(1S,3R)-3-[5-(4′-Chloro-2′-fluoro-biphenyl-4-yl)-[1,2,3]triazol-1-yl]-cyclopentyl}-propionamide] belongs < 0.3 µM; to `CCC(=O)N[C@H]1CC[C@@H](n2nncc2-c2ccc(-c3ccc(OC)cc3C)cc2)C1` [Compound A82, N-{(1S,3R)-3-[5-(4′-Methoxy-2′-methyl-biphenyl-4-yl)-[1,2,3]triazol-1-yl]-cyclopentyl}-propionamide], < 0.3 µM.
To `CCC(=O)N[C@H]1CC[C@@H](n2nncc2-c2ccc(-c3ccc(C)c(F)c3)cc2)C1` [Compound A83, N-{(1S,3R)-3-[5-(3′-Fluoro-4′-methyl-biphenyl-4-yl)-[1,2,3]triazol-1-yl]-cyclopentyl}-propionamide] belongs < 0.3 µM; to `CCC(=O)N[C@H]1CC[C@@H](n2nncc2-c2ccc(-c3ccc(C)cc3)cc2)C1` [Compound A84, N-{(1S,3R)-3-[5-(4′-Methyl-biphenyl-4-yl)-[1,2,3]triazol-1-yl]-cyclopentyl}-propionamide], < 0.3 µM.
To `CCC(=O)N[C@H]1CC[C@@H](n2nncc2-c2ccc(-c3ccc(F)c(Cl)c3)cc2)C1` [Compound A85, N-{(1S,3R)-3-[5-(3′-Chloro-4′-fluoro-biphenyl-4-yl)-[1,2,3]triazol-1-yl]-cyclopentyl}-propionamide] belongs < 0.3 µM.
In the case of `CCC(=O)N[C@H]1CC[C@@H](n2nncc2-c2ccc(-c3ccc(OC)cc3OC)cc2)C1` [Compound A86, N-{(1S,3R)-3-[5-(2′,4′-Dimethoxy-biphenyl-4-yl)-[1,2,3]triazol-1-yl]-cyclopentyl}-propionamide], the IC50 was < 0.3 µM.
With `CCC(=O)N[C@H]1CC[C@@H](n2nncc2-c2ccc(-c3ccc4[nH]c(=O)[nH]c4c3)cc2)C1` [Compound A87, N-((1S,3R)-3-{5-[4-(2-Oxo-2,3-dihydro-1H-benzimidazol-5-yl)-phenyl]-[1,2,3]triazol-1-yl}-cyclopentyl)-propionamide] the figure was < 0.3 µM.
With `CCC(=O)N[C@H]1CC[C@@H](n2nncc2-c2ccc(-c3ccc(OC)c(OC)c3)cc2)C1` [Compound A88, N-{(1S,3R)-3-[5-(3′,4′-Dimethoxy-biphenyl-4-yl)-[1,2,3]triazol-1-yl]-cyclopentyl}-propionamide] the figure was < 0.3 µM; with `CCC(=O)N[C@H]1CC[C@@H](n2nncc2-c2ccc(-c3ccc(C)cc3C)cc2)C1` [Compound A89, N-{(1S,3R)-3-[5-(2′,4′-Dimethyl-biphenyl-4-yl)-[1,2,3]triazol-1-yl]-cyclopentyl}-propionamide], < 0.3 µM.
With `CC1(C)OC[C@@H](C(=O)N[C@H]2CC[C@@H](n3nncc3-c3ccc(-c4nc5ccccc5o4)cc3)C2)O1` [Compound A90, (S)-2,2-Dimethyl-[1,3]dioxolane-4-carboxylic acid {(1S,3R)-3-[5-(4-benzoxazol-2-yl-phenyl)-[1,2,3]triazol-1-yl]-cyclopentyl}-amide] the figure was < 0.3 µM.
